Experimental findings from patent US20100324284A1, “PYRROLOPYRIMIDINE DERIVATIVE AS P13K INHIBITOR AND USE THEREOF” (CHUGAI SEIYAKU KABUSHIKI KAISHA, priority 2008, published 2010) are described below.

Experiment [1] deals with human prostate cancer cell line PC3. Kind of experiment: Cell proliferation inhibitory activity, PC3 (Cell Counting Kit-8). Format: cell-based. To be noted: PC-3, 96 h, PC3, 4 days. As to the method:
(§1) The cell proliferation inhibitory activity was measured for compounds of the present invention represented by formula (I). Cancer cell proliferation inhibitory activity was measured using the Cell Counting Kit-8 (Dojindo). 2000 cells each of human colon cancer cell line HCT116 purchased from the American Type Culture Collection (Virginia, USA) were seeded into each well of a 96-well culture plate followed by the addition of a predetermined concentration of the compounds and cultivating in a 5% CO2 environment at 37° C. for 4 days. On the fourth day of cultivating, the Cell Counting Kit-8 solution was added and absorbance (measuring wavelength: 450 nm, reference wavelength: 615 nm) was measured in accordance with the protocol provided with the kit.
(§2) Cancer cell proliferation inhibitory activity was also measured for human lung cancer cell line NCI-H460 and human prostate cancer cell line PC3 purchased from the American Type Culture Collection.
(Tetrazolium dyes change colour on reduction, which living cells bring about.)

Experiment [2] relates to human colon cancer cell line HCT116. Kind of experiment: Cell proliferation inhibitory activity, HCT116 (Cell Counting Kit-8). In kind it is cell-based. To be noted: HCT-116, 96 h, HCT116, 4 days. As to the method:
as §1

Experiment [3] concerns the target human PI3K (p110α/p85α) (Homo sapiens, UniProt P42336). In words: Measurement of PI3K inhibitory activity (AlphaScreen GST Detection Kit). In kind it is biochemical. To be noted: 10 μM ATP, 4 μM PI(4,5)P2, read-out: Enzyme inhibitory activity (IC50, μM) PI3K α. As to the method: The inhibitory activity of compounds of the present invention represented by formula (I) was measured with human PI3K (p110α/p85α) prepared in a baculovirus expression system using the AlphaScreen GST Detection Kit (Perkin Elmer, Inc.). A predetermined concentration of the compound of the present invention dissolved in dimethylsulfoxide (DMSO) and PI3K were mixed in a 384-well assay plate and after allowing to stand for 20 minutes at room temperature, 4 μM PI(4,5)P2 (Echelon Corporation) and 10 μM ATP (5 mM Hepes, pH 7.5, 2.5 mM MgCl2) were added to initiate the reaction. After reacting at 37° C. for 15 minutes, GST-GRP1 expressed and purified from Escherichia coli, Anti-GST Acceptor Beads (Perkin Elmer, Inc.), Streptavidin Donor Beads (Perkin Elmer, Inc.) and biotin-PI (3,4,5)P3 (Echelon Corporation) (10 mM Tris-HCl pH 7.4, 150 mM NaCl, 7.5 mM EDTA, 1 mM DTT, 0.1% Tween 20) were added, and after allowing to stand for 1 hour at room temperature, light at 520 to 620 nm emitted as a result of exciting with light at 680 nm was measured with the EnVision measuring instrument (Perkin Elmer, Inc.).
Test Example 1 described above can be performed according to “Analytical Biochemistry, 2003, 313, 234-245; Alexander Gray et al”.
On the technique in general: Alpha assays give light when donor and acceptor beads are brought close together.

Experiment [4] deals with human lung cancer cell line NCI-H460. Kind of experiment: Cell proliferation inhibitory activity, NCI-H460 (Cell Counting Kit-8). In kind it is cell-based. To be noted: 96 h, NCI-H460, 4 days, read-out: Cell proliferation inhibitory activity (IC50, μM) Non-small cell cancer (NCIH460). As to the method: as §1, §2

Sequence of human PI3K (p110α/p85α) (P42336 whole entry): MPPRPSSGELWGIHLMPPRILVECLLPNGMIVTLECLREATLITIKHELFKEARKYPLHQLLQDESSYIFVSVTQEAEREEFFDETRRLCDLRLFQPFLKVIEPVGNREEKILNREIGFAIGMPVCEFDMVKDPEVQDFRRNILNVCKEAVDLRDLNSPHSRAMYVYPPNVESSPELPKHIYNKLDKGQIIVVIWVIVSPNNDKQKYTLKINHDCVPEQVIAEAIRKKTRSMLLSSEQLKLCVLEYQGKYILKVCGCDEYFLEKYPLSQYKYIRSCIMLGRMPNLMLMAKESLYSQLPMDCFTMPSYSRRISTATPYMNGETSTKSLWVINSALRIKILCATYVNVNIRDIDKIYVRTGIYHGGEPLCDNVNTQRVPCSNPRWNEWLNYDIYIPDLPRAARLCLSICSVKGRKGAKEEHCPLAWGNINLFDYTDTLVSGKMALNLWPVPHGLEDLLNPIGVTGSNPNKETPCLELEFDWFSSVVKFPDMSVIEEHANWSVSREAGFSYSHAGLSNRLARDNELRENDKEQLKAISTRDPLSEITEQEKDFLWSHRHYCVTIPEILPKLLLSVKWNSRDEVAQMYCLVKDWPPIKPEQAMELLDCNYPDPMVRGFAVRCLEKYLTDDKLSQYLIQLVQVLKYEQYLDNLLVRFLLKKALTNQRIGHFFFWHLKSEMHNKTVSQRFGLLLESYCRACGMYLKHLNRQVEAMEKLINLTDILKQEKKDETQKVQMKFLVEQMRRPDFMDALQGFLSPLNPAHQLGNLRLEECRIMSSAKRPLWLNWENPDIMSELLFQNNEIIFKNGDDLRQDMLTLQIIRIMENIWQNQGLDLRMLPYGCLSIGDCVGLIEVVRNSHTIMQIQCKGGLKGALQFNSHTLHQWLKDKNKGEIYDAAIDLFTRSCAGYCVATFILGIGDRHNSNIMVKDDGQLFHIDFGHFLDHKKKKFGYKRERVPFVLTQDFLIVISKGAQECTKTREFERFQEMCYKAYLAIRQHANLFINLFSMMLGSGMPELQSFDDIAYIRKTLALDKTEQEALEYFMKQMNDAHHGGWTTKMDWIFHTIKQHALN
Sequence of human PI3K (p110α/p85α) (P27986 whole entry partner): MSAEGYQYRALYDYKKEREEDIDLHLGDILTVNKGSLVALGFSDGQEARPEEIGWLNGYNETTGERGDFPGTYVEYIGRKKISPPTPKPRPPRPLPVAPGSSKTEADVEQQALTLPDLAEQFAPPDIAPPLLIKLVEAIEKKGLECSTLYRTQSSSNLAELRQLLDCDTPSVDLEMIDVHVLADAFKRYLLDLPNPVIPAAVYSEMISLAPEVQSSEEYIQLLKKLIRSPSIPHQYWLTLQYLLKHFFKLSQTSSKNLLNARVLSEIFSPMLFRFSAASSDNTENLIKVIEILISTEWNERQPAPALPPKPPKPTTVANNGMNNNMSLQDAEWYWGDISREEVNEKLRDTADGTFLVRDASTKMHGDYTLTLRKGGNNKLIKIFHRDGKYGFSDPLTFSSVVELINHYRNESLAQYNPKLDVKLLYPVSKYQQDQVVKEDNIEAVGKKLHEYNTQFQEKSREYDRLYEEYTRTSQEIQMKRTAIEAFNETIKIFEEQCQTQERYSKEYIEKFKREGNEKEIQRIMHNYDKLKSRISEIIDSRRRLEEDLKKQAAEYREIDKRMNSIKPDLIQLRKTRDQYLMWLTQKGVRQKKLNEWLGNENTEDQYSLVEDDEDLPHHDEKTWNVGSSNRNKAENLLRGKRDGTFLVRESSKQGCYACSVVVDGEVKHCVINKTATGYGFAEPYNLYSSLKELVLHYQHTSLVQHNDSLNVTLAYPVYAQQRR

As for `Cc1ccc(C(=O)N2CCOCC2)cc1-n1ccc2c(-c3cnc(N)nc3)nc(N3CCOCC3)nc21` [Compound 2-1, {3-[4-(2-amino-pyrimidin-5-yl)-2-morpholin-4-yl-pyrrolo[2,3-d]pyrimidin-7-yl]-4-methyl-phenyl}-morpholin-4-yl-methanone], the IC50 was found to be 3.18 µM in experiment [1], 1.45 µM in experiment [2], 0.093 µM in experiment [3] and 1.25 µM in experiment [4].

On to `CS(=O)(=O)n1ccc2c(-c3cnc(N)nc3)nc(N3CCOCC3)nc21` [Compound 4-1, 5-(7-methanesulfonyl-2-morpholin-4-yl-7H-pyrrolo[2,3-d]pyrimidin-4-yl)-pyrimidin-2-ylamine], for which the IC50 in experiment [1] was found to be 1.14 µM; in experiment [2], 0.41 µM; in experiment [3], 0.016 µM; in experiment [4], 0.29 µM.

Regarding `Nc1ncc(-c2nc(N3CCOCC3)nc3c2ccn3-c2ccc(CN3CCS(=O)(=O)CC3)cc2)cn1` [Compound 3-1, 5-{7-[4-(1,1-dioxo-1λ^6-thiomorpholin-4-ylmethyl)-phenyl]-2-morpholin-4-yl-7H-pyrrolo[2,3-d]pyrimidin-4-yl}-pyrimidin-2-ylamine], the IC50 in experiment [1] came to 0.43 µM; in experiment [2] it was 0.57 µM; in experiment [3], 0.093 µM; in experiment [4], 0.17 µM.

On to `CCN1CCN(c2cc(-n3ccc4c(-c5cnc(N)nc5)nc(N5CCOCC5)nc43)ccn2)CC1` [Compound 1-1, 5-{7-[2-(4-Ethyl-piperazin-1-yl)-pyridin-4-yl]-2-morpholin-4-yl-7H-pyrrolo[2,3-d]pyrimidin-4-yl}-pyrimidin-2-ylamine], for which the IC50 in experiment [1] was determined as 0.18 µM; in experiment [2], 0.12 µM; in experiment [3] it was 0.007 µM; in experiment [4] it was 0.071 µM.
